The text below walks through data of patent publication US20030086923A1, “Method for the prevention and/or treatment of atherosclerosis” (priority 1999, published 2003).

The subject of one test is THP-1 macrophages. Briefly: Stimulation of cholesterol efflux from cultured THP-1 macrophages. The following applies: for EC50: Homo sapiens, THP-1. Format: cell-based, human. From the text:
Stimulation of Cholesterol Efflux from Cultured Cells
Patients with Tangier disease have mutations in the ABC1 gene and have very low HDL levels. Cultured cells from these patients are defective in cholesterol efflux (Francis et al. (1995) J. Clin. Invest. 96:78-87). Therefore, induction of ABC1 mRNA should lead to increased cholesterol efflux and increased HDL levels (Francis et al. (1999) Clinica Chimica Acta 286:219-230). TIIP-1 cells were used to determine whether induction of ABC1 mRNA by Compound 1 would increase cholesterol efflux. Specifically, cultured human THP-1 cells were stimulated to differentiate into macrophages by incubation with 100 nM tetradecanoyl phorbol acetate for three days, as described above. After differentiation, the TUP-1 macrophages were labeled with ^3H-cholesterol by incubation for 24 hours with 10 μCi/ml ^3H-cholesterol in Complete RPMI media containing 0.1% lipid-free bovine serum albumin (BSA) plus 100 nM tetradecanoyl phorbol acetate. After labeling, the cells were incubated for 24 hours in Complete RPMI media with 0.1% lipid-free bovine serum albumin (BSA) to allow for equilibration of cellular cholesterol pools. Cholesterol efflux was then measured over the following 24 hours by incubating the cells in Complete RPMI media containing 10 μg/ml of apoA-I as cholesterol acceptor, and either Compound 1 or DMSO as control.

For a further test, the system named is LXR. The test is described as follows: Activity on LXR (assay not specified).
In the next test the test system is ABC1 mRNA. The test is described as follows: Induction of ABC1 mRNA levels in THP-1 macrophages. Type of test: cell-based. The following applies: Homo sapiens, ABC-1, 15 μM, 6 hours, vs DMSO control, read-out: Fold Induction of ABC1 mRNA (Mean ± SEM). As to the method:
Induction of ABC1 mRNA levels
Cultured human THP-1 cells were used. All cell culture incubations were performed at 37° C. under 95% air/5% carbon dioxide. Cells were grown in Complete RPMI medium plus 10% FCS (Fetal Calf Serum). Complete RPMI medium is defined as RPMI medium (Sigma Cat.# R8005) containing […], 1 mM Na Pyruvate, 2 mM L-Glutamine, and Antibiotic-Antimyotic Solution (Sigma Cat.# A9909: 100U/ml Penicillin, 0.1 mg/ml Streptomycin, 0.251l/ml Amphotericin B). Cells were differentiated into macrophages by incubation in Complete RPMI medium plus 10% FCS (Fetal Calf Serum) plus 100 nM tetradecanoyl phorbol acetate for three days. After differentiation, the THP-1 macrophages were incubated in Complete RPMI medium plus 10% FCS (Fetal Calf Serum) with the test LXR agonist. After 6 hours at 37° C., the cells were harvested and total RNA prepared using the phenol/guanidine isothiocyanate method as supplied and described by Molecular Research Center, Inc. (TRI REAGENTφ Cat. No. TR 118). ABC1 mRNA levels in the total RNA were measured using the TaqMan® mRNA quantitation system, following protocols published by the manufacturer (Perkin-Elmer). The oligonucleotide PCR primers used to detect ABC1 were:
The oligonucleotide probe used was:
ABC1 mRNA levels in each sample were normalized to the mRNA levels for the 23 kDa highly basic protein. […]

Test [1] addresses T1, human GST-LXRβ ligand binding domain receptor (Homo sapiens, UniProt P55055).
T1 construct: human LXRβ (amino acids 149-455) were subcloned into the pGEX-KT expression vector; made in house; host or cells: E. coli (pGEX-KT vector)
T1 sequence (P55055 149-455): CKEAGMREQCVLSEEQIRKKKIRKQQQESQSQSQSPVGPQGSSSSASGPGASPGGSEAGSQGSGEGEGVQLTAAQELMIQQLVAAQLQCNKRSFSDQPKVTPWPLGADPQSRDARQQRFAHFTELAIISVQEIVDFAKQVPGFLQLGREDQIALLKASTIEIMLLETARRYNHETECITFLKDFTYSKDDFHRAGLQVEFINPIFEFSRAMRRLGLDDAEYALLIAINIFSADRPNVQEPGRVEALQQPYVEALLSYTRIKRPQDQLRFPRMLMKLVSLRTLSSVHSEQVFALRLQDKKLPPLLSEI
Briefly: Radioligand competition binding scintillation proximity assay, LXRβ. The text has this:
(§1) Radioligand Competition Binding Scintillation Proximity Assays:
(§2) Preparation of Recombinant Human LXRα and LXRβ:
(§3) Human LXRα and LXRβ were expressed as GST-fusion proteins in E. coli. The ligand binding domain cDNAs for human LXRα (amino acids 164-447) and human LXRβ (amino acids 149-455) were subcloned into the pGEX-KT expression vector (Pharmacia). E. coli containing the respective plasmids were propagated, induced, and harvested by centrifugation. The resuspended pellet was broken in a French press and debris was removed by centrifugation. Recombinant human LXR receptors were purified by affinity chromatography on glutathione sepharose and receptor was eluted with glutathione. Glycerol was added to a final concentration of 50% to stabilize the receptor and aliquots were stored at −80° C.
(§4) After incubation for ˜16 h at 15° C. with shaking, the assay plates were counted in a Packard Topcount.
In general terms: Displacement assays read how much labelled ligand stays bound in the presence of the test substance.

For a further test, the target named is T2, human GST-LXRα receptor (Homo sapiens, UniProt Q13133).
T2 construct: made in house; host or cells: E. coli (pGEX-KT vector)
T2 sequence (Q13133 164-447): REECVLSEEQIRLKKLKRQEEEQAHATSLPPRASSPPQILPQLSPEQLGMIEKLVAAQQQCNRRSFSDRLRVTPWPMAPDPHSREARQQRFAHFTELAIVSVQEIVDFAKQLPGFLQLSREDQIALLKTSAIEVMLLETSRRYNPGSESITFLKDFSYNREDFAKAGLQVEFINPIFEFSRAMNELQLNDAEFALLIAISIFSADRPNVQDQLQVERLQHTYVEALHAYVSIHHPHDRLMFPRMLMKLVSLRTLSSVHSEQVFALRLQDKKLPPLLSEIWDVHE
The test is described as follows: Radioligand competition binding scintillation proximity assay, LXRα.
Excerpt: as §1, §2, §3, §4

Test [2] in a line: HDL-raising activity in hamsters. Type of test: in vivo, hamster. To be noted: oral gavage 10 mg per kg twice per day, seven days, p=0.01. As to the method:
HDL-Raising Activity: Hamsters were given Compound 4 by oral gavage at 10 mg per kg body weight, twice per day, for seven days. Blood was then collected and serum HDL cholesterol measured.

For the next test, the target named is T3, LXRα-GAL4 fusion protein (Homo sapiens, UniProt Q13133).
T3 construct: expressed in transfected cells; host or cells: HEK-293 (pcDNA3-LXRα/GAL4)
T3 sequence (Q13133 209-447 limits assumed): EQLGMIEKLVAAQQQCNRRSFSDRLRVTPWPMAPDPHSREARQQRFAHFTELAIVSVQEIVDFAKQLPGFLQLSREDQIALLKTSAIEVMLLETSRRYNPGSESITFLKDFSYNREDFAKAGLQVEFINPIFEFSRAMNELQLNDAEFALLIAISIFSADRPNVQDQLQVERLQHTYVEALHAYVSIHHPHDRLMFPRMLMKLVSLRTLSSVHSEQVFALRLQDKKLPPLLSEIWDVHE
Briefly: LXRα/GAL4 transactivation assay in HEK-293 cells. To be noted: 48 h. Type of test: cell-based. On the procedure: (§5) Expression constructs were prepared by inserting the ligand binding domain (LBD) of human LXRα and LXRβ cDNAs adjacent to the yeast GAL4 transcription factor DNA binding domain (DBD) in the mammalian expression vector pcDNA3 to create pcDNA3-LXRα/GAL4 and pcDNA3-LXRβ/GAL4, respectively. The GAL4-responsive reporter construct, pUAS(5×)-tk-luc, contained 5 copies of the GAL4 response element placed adjacent to the thymidine kinase minimal promoter and the luciferase reporter gene. The transfection control vector, pEGFP-N1, contained the Green Fluorescence Protein (GFP) gene under the regulation of the cytomegalovirus promoter.
(§6) HEK-293 cells were seeded at 40,000 cells/well in 96 well plates in Dulbecco's modified Eagle medium (high glucose) containing 10% charcoal stripped fetal calf serum (FCS), 100 units/ml Penicillin G and 100 μg/ml Streptomycin sulfate at 37° C. in a humidified atmosphere of 5% CO2. After 24 h, transfections were performed with Lipofectamine (Gibco-BRL, Gaithersburg, Md.) according to the instructions of the manufacturer. […] Luciferase activity in cell extracts was determined using Luciferase Assay Buffer (Promega) in a ML3000 luminometer (Dynatech Laboratories). GFP expression was determined using the Tecan Spectrofluor Plus at excitation wavelength of 485 nm and emission at 535 nm. […]

A further test deals with T4, LXRβ-GAL4 fusion protein (Homo sapiens, UniProt P55055).
T4 construct: expressed in transfected cells; host or cells: HEK-293 (pcDNA3-LXRβ/GAL4)
T4 sequence (P55055 222-460 limits assumed): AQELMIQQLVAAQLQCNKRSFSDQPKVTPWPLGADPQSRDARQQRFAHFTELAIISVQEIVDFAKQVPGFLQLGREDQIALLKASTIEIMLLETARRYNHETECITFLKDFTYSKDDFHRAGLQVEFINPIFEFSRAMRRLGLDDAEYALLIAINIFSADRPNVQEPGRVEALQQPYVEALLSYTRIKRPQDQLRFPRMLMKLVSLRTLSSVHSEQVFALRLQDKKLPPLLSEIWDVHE
Briefly: LXRβ/GAL4 transactivation assay in HEK-293 cells. Format: cell-based. The following applies: 48 h. As to the method:
as §5, §6

The term IC50 denotes the midpoint of a concentration-inhibition curve. Lower therefore signals higher potency. What is called EC50 is the concentration giving half of the maximal effect.

On to `CC(C)CC[C@H](O)[C@@H](C)[C@H]1CC[C@H]2[C@@H]3CC=C4C[C@@H](O)CC[C@]4(C)[C@H]3CC[C@]12C` [22-(S)-hydroxy-cholesterol, reference compound], for which, in the test with THP-1 macrophages, the “Stimulation of cholesterol efflux (in words)” value was “did not stimulate cholesterol efflux at all”. Besides, the “Activity on LXR (in words)” value in the test with LXR was “inactive”.

Regarding `CC(C)CC[C@@H](O)[C@@H](C)[C@H]1CC[C@H]2[C@@H]3CC=C4C[C@@H](O)CC[C@]4(C)[C@H]3CC[C@]12C` [Compound 2, 22(R)-hydroxycholesterol, reference compound], the “Stimulation of cholesterol efflux” value with THP-1 macrophages (5 μM, p<0.001) amounted to 57%. Also, the fold induction at 15 µM with ABC1 mRNA turned out to be 6.7 ± 1.2.

Regarding `CC(C)N(C(=O)[C@H]1CCC2C3CC=C4N(C)C(=O)CCC4(C)C3CCC21C)C(C)C` (stereo partly shown) [Compound 3], the results for the IC50 (in test [1]; on human GST-LXRα receptor) were 442 nM and 112 nM, respectively. The molecule also came in with an EC50 in the test on THP-1 macrophages of 120 nM.

With `CCCc1c(OCCCN2C(=O)CCNC2=O)ccc2c(C(F)(F)F)noc12` [Compound 4, 4,5-Dihydro-1-(3-(3-trifluoromethyl-7-propyl-benzisoxazol-6-yloxy)propyl)-2,6-pyrimidinedione], the 50% inhibitory concentration (IC50) in test [1] came to 72 nM; at human GST-LXRα receptor, 1 nM. In addition, the “Increase of serum HDL cholesterol levels vs vehicle control” value in test [2] worked out at 21%. The EC50 came out at 63 nM in the test with THP-1 macrophages, 183 nM on LXRα-GAL4 fusion protein and 360 nM at LXRβ-GAL4 fusion protein.
